Results from publication PMC12406204 (Journal of Medicinal Chemistry, 2025).

Key:
[1] = biological target: CB1R (Homo sapiens, UniProt P21554); experiment: CB1R radioligand binding competition ([3H]CP55,940); parameters: host or cells: CHO-CB1 C3 cell line; conditions: for Ki: displacement of [3H]CP 55,940, membranes of CHO-CB1 C3 cells, n = 3; for CB1R % at 1 μM: percentage displacement of specific [3H]CP 55,940 binding at 1 μM, n = 2
[2] = biological target: CB2R (Homo sapiens, UniProt P34972); experiment: CB2R radioligand binding competition ([3H]CP55,940); parameters: expressed in transfected cells; host or cells: HEK-293T (HEK-CB2 cell line); conditions: for Ki: displacement of [3H]CP 55,940, membranes of HEK-293T cells, n = 3; for SI Ki CB1R/Ki CB2R: selectivity index, affinity ratio; for CB2R % at 1 μM: percentage displacement of specific [3H]CP 55,940 binding at 1 μM, n = 2
Chain of CB2R (P34972 whole entry): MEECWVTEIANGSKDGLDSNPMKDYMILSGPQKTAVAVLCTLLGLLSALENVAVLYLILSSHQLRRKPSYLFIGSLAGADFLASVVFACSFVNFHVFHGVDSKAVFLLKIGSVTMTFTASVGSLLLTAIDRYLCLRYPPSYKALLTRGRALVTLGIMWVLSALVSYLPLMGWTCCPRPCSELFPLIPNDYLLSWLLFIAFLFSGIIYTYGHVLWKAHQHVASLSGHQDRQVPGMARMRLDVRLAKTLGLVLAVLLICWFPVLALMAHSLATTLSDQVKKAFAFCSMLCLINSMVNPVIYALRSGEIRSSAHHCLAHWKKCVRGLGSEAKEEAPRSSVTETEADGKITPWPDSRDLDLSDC

Chain of CB1R (P21554 whole entry): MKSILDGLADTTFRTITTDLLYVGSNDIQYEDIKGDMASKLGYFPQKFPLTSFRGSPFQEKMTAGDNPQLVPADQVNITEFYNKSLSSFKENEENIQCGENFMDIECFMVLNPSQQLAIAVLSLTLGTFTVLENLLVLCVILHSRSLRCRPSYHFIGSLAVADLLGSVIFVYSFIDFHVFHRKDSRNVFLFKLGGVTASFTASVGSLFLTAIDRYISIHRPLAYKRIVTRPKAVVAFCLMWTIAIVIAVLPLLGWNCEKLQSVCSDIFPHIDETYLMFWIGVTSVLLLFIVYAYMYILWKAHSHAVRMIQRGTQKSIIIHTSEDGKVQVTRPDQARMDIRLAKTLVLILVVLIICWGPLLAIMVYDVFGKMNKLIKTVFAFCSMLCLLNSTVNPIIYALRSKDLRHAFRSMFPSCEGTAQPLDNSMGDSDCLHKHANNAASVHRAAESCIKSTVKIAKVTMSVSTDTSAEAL

SMILES	Ki [1] [nM]	Ki [2] [nM]	SI Ki CB1R/Ki CB2R [2]	CB1R % at 1 μM [1] [%]	CB2R % at 1 μM [2] [%]
CCCCCn1cc(C(=O)N2CCC[C@H]2C(=O)OC)c2ccccc21 [15a]	121 ± 6	189 ± 10	0.6	–	–
CCCCCn1cc(C(=O)N2CCC[C@@H]2C(=O)OC)c2ccccc21 [15b]	–	–	–	4	25
COC(=O)[C@@H]1CCCN1C(=O)c1cn(CCCCCF)c2ccccc12 [15c]	55.9 ± 2.7	71.7 ± 2	0.8	–	–
COC(=O)[C@H]1CCCN1C(=O)c1cn(CCCCCF)c2ccccc12 [15d]	–	–	–	3	26
COC(=O)[C@@H]1CCCN1C(=O)c1cn(CC2CCCCC2)c2ccccc12 [15e]	11.3 ± 0.5	38.3 ± 2.1	0.3	–	–
COC(=O)[C@H]1CCCN1C(=O)c1cn(CC2CCCCC2)c2ccccc12 [15f]	–	463 ± 11	>100	32	–
COC(=O)[C@@H]1CCCN1C(=O)c1cn(Cc2ccc(F)cc2)c2ccccc12 [15g]	14.4 ± 0.6	47.7 ± 1.9	0.3	–	–
COC(=O)[C@H]1CCCN1C(=O)c1cn(Cc2ccc(F)cc2)c2ccccc12 [15h]	–	599 ± 13	>100	10	–
CCCCCn1nc(C(=O)N2CCC[C@H]2C(=O)OC)c2ccccc21 [15i]	337 ± 9	75.9 ± 2.2	4	–	–
CCCCCn1nc(C(=O)N2CCC[C@@H]2C(=O)OC)c2ccccc21 [15j]	–	208 ± 5	>100	4	–
COC(=O)[C@@H]1CCCN1C(=O)c1nn(CCCCCF)c2ccccc12 [15k]	173 ± 5	41.9 ± 2.1	4	–	–
COC(=O)[C@H]1CCCN1C(=O)c1nn(CCCCCF)c2ccccc12 [15l]	–	513 ± 3	>100	1	–
COC(=O)[C@@H]1CCCN1C(=O)c1nn(CC2CCCCC2)c2ccccc12 [15m]	73.4 ± 2.9	20.7 ± 0.6	3	–	–
COC(=O)[C@H]1CCCN1C(=O)c1nn(CC2CCCCC2)c2ccccc12 [15n]	–	99.3 ± 2.8	>100	2	–
COC(=O)[C@@H]1CCCN1C(=O)c1nn(Cc2ccc(F)cc2)c2ccccc12 [15o]	46.2 ± 2.3	16.5 ± 1.1	3	–	–
COC(=O)[C@H]1CCCN1C(=O)c1nn(Cc2ccc(F)cc2)c2ccccc12 [15p]	–	157 ± 4	>100	5	–
CCCCCn1cc(C(=O)N2CCCC[C@H]2C(=O)OC)c2ccccc21 [16a]	644 ± 13	114 ± 6	6	–	–
CCCCCn1cc(C(=O)N2CCCC[C@@H]2C(=O)OC)c2ccccc21 [16b]	–	273 ± 4	>100	18	–
COC(=O)[C@@H]1CCCCN1C(=O)c1cn(CCCCCF)c2ccccc12 [16c]	716 ± 16	84.1 ± 1.9	8	–	–
COC(=O)[C@H]1CCCCN1C(=O)c1cn(CCCCCF)c2ccccc12 [16d]	–	251 ± 7	>100	24	–
COC(=O)[C@@H]1CCCCN1C(=O)c1cn(CC2CCCCC2)c2ccccc12 [16e]	122 ± 8	45.1 ± 1.7	3	–	–
COC(=O)[C@H]1CCCCN1C(=O)c1cn(CC2CCCCC2)c2ccccc12 [16f]	–	93.1 ± 3.3	>100	37	–
COC(=O)[C@@H]1CCCCN1C(=O)c1cn(Cc2ccc(F)cc2)c2ccccc12 [16g]	90.3 ± 2.3	22.5 ± 1.1	4	–	–
COC(=O)[C@H]1CCCCN1C(=O)c1cn(Cc2ccc(F)cc2)c2ccccc12 [16h]	–	109 ± 4	>100	35	–

SMILES	Ki [1] [nM]	Ki [2] [nM]	SI Ki CB1R/Ki CB2R [2]	CB1R % at 1 μM [1] [%]	CB2R % at 1 μM [2] [%]
COC(=O)[C@@H]1CCCCN1C(=O)c1nn(CCCCCF)c2ccccc12 [16k]	392 ± 5	10.6 ± 0.7	37	–	–
COC(=O)[C@H]1CCCCN1C(=O)c1nn(CCCCCF)c2ccccc12 [16l]	–	127 ± 5	>100	5	–
COC(=O)[C@@H]1CCCCN1C(=O)c1nn(CC2CCCCC2)c2ccccc12 [16m]	162 ± 3	5.2 ± 0.4	31	–	–
COC(=O)[C@H]1CCCCN1C(=O)c1nn(CC2CCCCC2)c2ccccc12 [16n]	–	164 ± 5	>100	3	–
COC(=O)[C@@H]1CCCCN1C(=O)c1nn(Cc2ccc(F)cc2)c2ccccc12 [16o]	65.4 ± 2.4	4.1 ± 0.12	16	–	–
COC(=O)[C@H]1CCCCN1C(=O)c1nn(Cc2ccc(F)cc2)c2ccccc12 [16p]	–	48.4 ± 1.8	>100	–	–
CCCCCn1cc(C(=O)N2CCC[C@H]2C(N)=O)c2ccccc21 [17a]	–	–	–	2	24
CCCCCn1cc(C(=O)N2CCC[C@@H]2C(N)=O)c2ccccc21 [17b]	–	–	–	3	17
NC(=O)[C@@H]1CCCN1C(=O)c1cn(CCCCCF)c2ccccc12 [17c]	–	–	–	1	15
NC(=O)[C@H]1CCCN1C(=O)c1cn(CCCCCF)c2ccccc12 [17d]	–	–	–	5	16
NC(=O)[C@@H]1CCCN1C(=O)c1cn(CC2CCCCC2)c2ccccc12 [17e]	–	288 ± 7	>100	6	–
NC(=O)[C@H]1CCCN1C(=O)c1cn(CC2CCCCC2)c2ccccc12 [17f]	–	411 ± 16	>100	3	–
NC(=O)[C@@H]1CCCN1C(=O)c1cn(Cc2ccc(F)cc2)c2ccccc12 [17g]	–	–	–	3	20
NC(=O)[C@H]1CCCN1C(=O)c1cn(Cc2ccc(F)cc2)c2ccccc12 [17h]	–	–	–	4	7
CCCCCn1nc(C(=O)N2CCC[C@H]2C(N)=O)c2ccccc21 [17i]	–	–	–	2	31
CCCCCn1nc(C(=O)N2CCC[C@@H]2C(N)=O)c2ccccc21 [17j]	–	–	–	3	28
NC(=O)[C@@H]1CCCN1C(=O)c1nn(CCCCCF)c2ccccc12 [17k]	–	–	–	2	17
NC(=O)[C@H]1CCCN1C(=O)c1nn(CCCCCF)c2ccccc12 [17l]	–	–	–	4	25
NC(=O)[C@@H]1CCCN1C(=O)c1nn(CC2CCCCC2)c2ccccc12 [17m]	–	–	–	1	27
NC(=O)[C@H]1CCCN1C(=O)c1nn(CC2CCCCC2)c2ccccc12 [17n]	–	–	–	2	28
NC(=O)[C@@H]1CCCN1C(=O)c1nn(Cc2ccc(F)cc2)c2ccccc12 [17o]	–	628 ± 21	>100	4	–
NC(=O)[C@H]1CCCN1C(=O)c1nn(Cc2ccc(F)cc2)c2ccccc12 [17p]	–	–	–	4	12
CCCCCn1cc(C(=O)N2CCCC[C@H]2C(N)=O)c2ccccc21 [18a]	–	111 ± 6	>100	3	–
